Patent US12172983B2, “EGFR inhibitors” (Blueprint Medicines Corporation, priority 2019, dated 2024)

Legend:
[1] = tested on: phosphorylation of EGFR (Tyr1068) in NCI-H1975 cell line that harbors the EGFR L858R T790M mutations; test: NCI-H1975 pEGFR AlphaLISA assay; type: cell-based; settings: Homo sapiens, NCI-H1975, inhibition of phosphorylation of mutant EGFR in NCI-H1975 cells; 4-5 hours incubation; read-out: Ext pEGFR H1975
Summary of the method: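 NCI-H1975 cells (EGFR L858R/T790M) seeded overnight, then treated with compound for 4-5 h at 37 °C/5% CO2. After lysis, p-EGFR (Tyr1068) quantified by AlphaLISA SureFire Ultra with acceptor then donor beads; IC50 fitted from percent inhibition versus log concentration.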

[2] = biological target: T1, EGFR (L858R T790M C797S) (Homo sapiens, UniProt P00533, C797S/L858R/T790M); test: Biochemical EGFR inhibition assay (Caliper mobility shift), EGFR LRTMCS mutant; settings: inhibitory activity against EGFR LRTMCS mutant; apparent IC50; read-out: Ext Enz LRTMCS
T1 construct: purchased SignalChem E10-122VG
Summary of the method: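 Kinase reactions proceed at 25° C. to 10%–20% conversion of total peptide, are terminated with 35 mM EDTA, and the phosphopeptide is resolved from substrate by electrophoretic mobility shift. Apparent IC50 values come from plotting percent activity against log compound concentration.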

T1 sequence (P00533 25-1210 T790M/C797S/L858R): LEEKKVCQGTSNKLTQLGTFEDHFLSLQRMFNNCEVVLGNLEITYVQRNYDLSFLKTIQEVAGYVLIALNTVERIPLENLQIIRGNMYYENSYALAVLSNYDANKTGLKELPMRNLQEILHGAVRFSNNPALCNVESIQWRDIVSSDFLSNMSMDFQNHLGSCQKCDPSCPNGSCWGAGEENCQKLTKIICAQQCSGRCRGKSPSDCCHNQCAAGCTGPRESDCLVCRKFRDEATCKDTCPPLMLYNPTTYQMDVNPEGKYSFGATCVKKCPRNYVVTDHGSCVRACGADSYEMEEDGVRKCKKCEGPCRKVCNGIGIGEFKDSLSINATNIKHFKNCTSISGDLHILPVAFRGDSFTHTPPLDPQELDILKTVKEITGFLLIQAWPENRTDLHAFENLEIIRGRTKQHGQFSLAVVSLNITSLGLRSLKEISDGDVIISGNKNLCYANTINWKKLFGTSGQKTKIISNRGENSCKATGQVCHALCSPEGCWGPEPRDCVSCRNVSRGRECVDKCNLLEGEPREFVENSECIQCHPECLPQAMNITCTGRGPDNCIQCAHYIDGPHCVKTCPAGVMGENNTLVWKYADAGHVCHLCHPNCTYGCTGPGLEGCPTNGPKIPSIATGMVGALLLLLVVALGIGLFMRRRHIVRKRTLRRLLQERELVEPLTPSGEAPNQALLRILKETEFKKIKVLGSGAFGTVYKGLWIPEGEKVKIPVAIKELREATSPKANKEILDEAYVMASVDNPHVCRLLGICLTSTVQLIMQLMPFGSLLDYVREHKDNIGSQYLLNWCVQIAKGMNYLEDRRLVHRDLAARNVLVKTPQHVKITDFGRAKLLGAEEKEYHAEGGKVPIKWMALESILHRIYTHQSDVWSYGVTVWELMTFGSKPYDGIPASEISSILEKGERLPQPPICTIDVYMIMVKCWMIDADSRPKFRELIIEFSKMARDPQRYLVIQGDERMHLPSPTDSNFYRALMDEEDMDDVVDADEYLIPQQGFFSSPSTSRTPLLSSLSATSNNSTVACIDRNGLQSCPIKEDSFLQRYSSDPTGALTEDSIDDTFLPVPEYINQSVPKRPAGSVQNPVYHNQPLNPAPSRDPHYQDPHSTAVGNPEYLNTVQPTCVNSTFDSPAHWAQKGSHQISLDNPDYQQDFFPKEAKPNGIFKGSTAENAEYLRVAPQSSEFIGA

IC50 [1] [µM]	IC50 [2] [µM]	Compound
≤ 0.01	≤ 0.015	CC(C)c1ccc(N2CC(CS(C)(=O)=O)C2)c2cnc(Nc3ccnc(N4C[C@@H](F)[C@@H](O)[C@@](C)(F)C4)n3)cc12 (single isomer, unassigned) [Compound 155, (3S,4R,5R)-3,5-difluoro-1-[4-({8-[3-(methanesulfonylmethyl)azetidin-1-yl]-5-(propan-2-yl)isoquinolin-3-yl}amino)pyrimidin-2-yl]-3-methylpiperidin-4-ol or (3R,4S,5S)-3,5-difluoro-1-[4-({8-[3-(methanesulfonylmethyl)azetidin-1-yl]-5-(propan-2-yl)isoquinolin-3-yl}amino)pyrimidin-2-yl]-3-methylpiperidin-4-ol]
≤ 0.01	≤ 0.015	CC(C)c1ccc(N2CC(CS(C)(=O)=O)C2)c2cnc(Nc3ccnc(N4C[C@@H](F)[C@@H](O)[C@](C)(F)C4)n3)cc12 (single isomer, unassigned) [Compound 156, (3R,4R,5R)-3,5-difluoro-1-[4-({8-[3-(methanesulfonylmethyl)azetidin-1-yl]-5-(propan-2-yl)isoquinolin-3-yl}amino)pyrimidin-2-yl]-3-methylpiperidin-4-ol or (3S,4S,5S)-3,5-difluoro-1-[4-({8-[3-(methanesulfonylmethyl)azetidin-1-yl]-5-(propan-2-yl)isoquinolin-3-yl}amino)pyrimidin-2-yl]-3-methylpiperidin-4-ol]
≤ 0.01	≤ 0.015	CC(C)c1cc(F)c(N2CC(CS(C)(=O)=O)C2)c2cnc(Nc3ccnc(N4CC[C@@H](O)[C@@](C)(F)C4)n3)cc12 (single isomer, unassigned) [Compound 157]
0.0101 to 0.02	0.0151 to 0.02	CO[C@H]1CCN(c2nccc(Nc3cc4c(C(C)C)ccc(N5CC(CS(C)(=O)=O)C5)c4cn3)n2)CC1(F)F (single isomer, unassigned) [Compound 158]
0.0201 to 0.03	0.0151 to 0.02	CO[C@@H]1CCN(c2nccc(Nc3cc4c(C(C)C)ccc(N5CC(CS(C)(=O)=O)C5)c4cn3)n2)CC1(F)F (single isomer, unassigned) [Compound 159]
0.0301 to 0.05	0.0151 to 0.02	CCS(=O)(=O)CC1CN(c2ncc(C(C)C)c3cc(Nc4ccnc(N5CCN[C@@H](C(F)F)C5)n4)ncc23)C1 (single isomer, unassigned) [Compound 160, N-{2-[(3R)-3-(difluoromethyl)piperazin-1-yl]pyrimidin-4-yl}-8-{3-[(ethanesulfonyl)methyl]azetidin-1-yl}-5-(propan-2-yl)-2,7-naphthyridin-3-amine or N-{2-[(3S)-3-(difluoromethyl)piperazin-1-yl]pyrimidin-4-yl}-8-{3-[(ethanesulfonyl)methyl]azetidin-1-yl}-5-(propan-2-yl)-2,7-naphthyridin-3-amine]
≤ 0.01	≤ 0.015	[2H]C([2H])([2H])O[C@@H]1CCN(c2nccc(Nc3cc4c(C(C)C)ncc(N5C[C@H](CS(C)(=O)=O)[C@H]5C)c4cn3)n2)C[C@@H]1F (single isomer, unassigned) [Compound 161, N-{2-[(3S,4R)-3-fluoro-4-(^2H3)methoxypiperidin-1-yl]pyrimidin-4-yl}-8-[(2R,3S)-3-(methanesulfonylmethyl)-2-methylazetidin-1-yl]-5-(propan-2-yl)-2,6-naphthyridin-3-amine or N-{2-[(3R,4S)-3-fluoro-4-(^2H3)methoxypiperidin-1-yl]pyrimidin-4-yl}-8-[(2R,3S)-3-(methanesulrfonylmethyl)-2-methylazetidin-1-yl]-5-(propan-2-yl)-2,6-naphthyridin-3-amine]
